Source: patent US8906852B2 (MethylGene Inc., priority 2010, dated 2014)

biological target: T1, VEGFR/KDR (Homo sapiens, UniProt P35968); test: VEGFR/KDR kinase inhibition, DELFIA assay; format: biochemical; details: ATP 0.6 uM (2x Km), enzyme 5 nM
T1 construct: made in house; host or cells: Sf9 cells (Spodoptera frugiperda), baculovirus
Outline: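 DELFIA time-resolved fluorescence readout using Europium-tagged anti-phosphotyrosine antibody after EDTA stop. Kinase reaction on plate-bound poly(Glu4,Tyr) ran 10-30 min at 30° C with 5 nM enzyme and 0.6 uM ATP (2× Km), following 4 min on-ice pre-incubation with compound; IC50 over a concentration range.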

T1 sequence (P35968 806-1356): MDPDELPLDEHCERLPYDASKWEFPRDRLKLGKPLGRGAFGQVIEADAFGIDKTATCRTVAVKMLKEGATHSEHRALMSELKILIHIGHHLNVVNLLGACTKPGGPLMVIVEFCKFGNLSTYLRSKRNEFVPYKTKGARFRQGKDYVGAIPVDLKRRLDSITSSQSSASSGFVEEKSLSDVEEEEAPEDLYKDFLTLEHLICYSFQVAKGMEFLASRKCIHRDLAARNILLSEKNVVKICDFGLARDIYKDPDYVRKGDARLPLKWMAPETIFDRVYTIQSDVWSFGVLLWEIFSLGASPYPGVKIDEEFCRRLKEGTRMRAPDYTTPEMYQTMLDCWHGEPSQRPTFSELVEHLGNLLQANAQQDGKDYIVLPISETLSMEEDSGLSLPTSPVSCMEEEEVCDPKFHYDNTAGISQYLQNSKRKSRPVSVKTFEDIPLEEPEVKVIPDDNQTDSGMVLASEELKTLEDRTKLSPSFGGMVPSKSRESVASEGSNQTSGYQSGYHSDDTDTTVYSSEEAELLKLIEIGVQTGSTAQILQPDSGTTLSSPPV

Compound | IC50 [nM]
C=CC(=O)N1CCN(Cc2ccc(-c3cc4nccc(Oc5ccc(NC(=O)NC6CC6)cc5F)c4s3)nc2)CC1(C)C [Compound 499, 1-(4-(2-(5-((4-acryloyl-3,3-dimethylpiperazin-1-yl)methyl)pyridin-2-yl)thieno[3,2-b]pyridin-7-yloxy)-3-fluorophenyl)-3-cyclopropylurea] | < 50
O=C(Nc1ccc(Oc2ccnc3cc(-c4ccc(CN5CCC[C@H]5C(=O)NCCO)cn4)sc23)c(F)c1)NC1CC1 [Compound 485, (S)-1-((6-(7-(4-(3-cyclopropylureido)-2-fluorophenoxy)thieno[3,2-b]pyridin-2-yl)pyridin-3-yl)methyl)-N-(2-hydroxyethyl)pyrrolidine-2-carboxamide] | < 50
O=C(Nc1ccc(Oc2ccnc3cc(C(=O)N4CCCC(C(=O)O)C4)sc23)c(F)c1)NC1CC1 (centres unmarked) [Compound 466, 1-(7-(4-(3-cyclopropylureido)-2-fluorophenoxy)thieno[3,2-b]pyridine-2-carbonyl)piperidine-3-carboxylic acid] | < 50
1-(2-(6-(7-(2-fluoro-4-nitrophenoxy)thieno[3,2-b]pyridin-2-yl)pyridin-3-yl)ethyl)pyrrolidin-2-one [Compound 293] | < 50
O=C(Nc1ccc(Oc2ccnc3cc(-c4ccc(CN5CCN(Cc6cccnc6)CC5)cn4)sc23)c(F)c1)NC1CC1 [Compound 324, 1-cyclopropyl-3-(3-fluoro-4-(2-(5-((4-(pyridin-3-ylmethyl)piperazin-1-yl)methyl)pyridin-2-yl)thieno[3,2-b]pyridin-7-yloxy)phenyl)urea] | < 50
CN(CCO)C(=O)C1CCCN(Cc2ccc(-c3cc4nccc(Oc5ccc(NC(=O)NC6CC6)cc5F)c4s3)nc2)C1 (centres unmarked) [Compound 494, 1-((6-(7-(4-(3-cyclopropylureido)-2-fluorophenoxy)thieno[3,2-b]pyridin-2-yl)pyridin-3-yl)methyl)-N-(2-hydroxyethyl)-N-methylpiperidine-3-carboxamide] | < 50
O=C(O)CCNC(=O)NC1CCN(Cc2ccc(-c3cc4nccc(Oc5ccc(NC(=O)NC6CC6)cc5F)c4s3)nc2)CC1 [Compound 429] | ≥ 250
COCCN(Cc1ccc(-c2cc3nccc(Oc4ccc(NC(=O)NC5CC5)c(F)c4F)c3s2)nc1)C(=O)CO [Compound 259-A, N-((6-(7-(4-(3-cyclopropylureido)-2,3-difluorophenoxy)thieno[3,2-d]pyridin-2-yl)pyridin-3-yl)methyl)-2-hydroxy-N-(2-methoxyethyl)acetamide] | < 50
COCCNCc1ccc(-c2cc3nccc(Oc4ccc(NC(=S)NC5CC5)cc4F)c3s2)nc1 [Compound 502, 1-Cyclopropyl-3-(3-fluoro-4-(2-(5-((2-methoxyethylamino)methyl)pyridin-2-yl)thieno[3,2-b]pyridin-7-yloxy)phenyl)thiourea] | < 50
COCCOCCOCCOCCN(C)Cc1ccc(-c2cc3nccc(Oc4ccc(NC(=O)NC5CC5)cc4F)c3s2)nc1 [Compound 180, 1-cyclopropyl-3-(3-fluoro-4-(2-(5-(2-methyl-5,8,11,14-tetraoxa-2-azapentadecyl)pyridin-2-yl)thieno[3,2-b]pyridin-7-yloxy)phenyl)urea] | < 50
O=C(Nc1ccc(Oc2ccnc3cc(-c4ccc(CN5CCC(C(=O)O)CC5)cn4)sc23)c(F)c1)NC1CC1 [Compound 62, l-((6-(7-(4-(3-cyclopropylureido)-2-fluorophenoxy)thieno[3,2-b]pyridin-2-yl)pyridin-3-yl)methyl)piperidine-4-carboxylic acid] | < 50
CNC(=O)N1CCN(Cc2ccc(-c3cc4nccc(Oc5ccc(NC(=O)NC6CC6)cc5F)c4s3)nc2)CC1 [Compound 552] | < 50
O=C(O)CNC(=O)NC1CCN(Cc2ccc(-c3cc4nccc(Oc5ccc(NC(=O)NC6CC6)cc5F)c4s3)nc2)CC1 [Compound 426, 2-(3-(1-((6-(7-(4-(3-Cyclopropylureido)-2-fluorophenoxy)thieno[3,2-b]pyridin-2-yl)pyridin-3-yl)methyl)piperidin-4-yl)ureido)acetic acid] | < 50
COCCNCc1ccc(-c2cc3nccc(Oc4ccc(NC(CC(=O)Nc5ccccc5)C(F)(F)F)cc4F)c3s2)nc1 (centres unmarked) [Compound 19, 4,4,4-trifluoro-3-(3-fluoro-4-(2-(5-((2-methoxyethylamino)methyl)pyridin-2-yl)thieno[3,2-b]pyridin-7-yloxy)phenylamino)-N-phenylbutanamide] | < 50
CCNC(=O)N1CC(OCc2ccc(-c3cc4nccc(Oc5ccc(NC(=O)NC6CC6)cc5F)c4s3)nc2)C1 [Compound 409] | < 50
COCCN(Cc1ccc(-c2cc3nccc(Oc4ccc(NC(=O)NC5CC5)nc4)c3s2)nc1)C(=O)CO [Compound 31, N-((6-(7-(6-(3-cyclopropylureido)pyridin-3-yloxy)thieno[3,2-b]pyridin-2-yl)pyridin-3-yl)methyl)-2-hydroxy-N-(2-methoxyethyl)acetamide] | 100 to 250

Compound | IC50 [nM]
CC(=O)OCC(=O)N1CCN(Cc2ccc(-c3cc4nccc(Oc5ccc(NC(=O)NC6CC6)cc5F)c4s3)nc2)C[C@@H]1C [Compound 528, (S)-2-(4-((6-(7-(4-(3-cyclopropylureido)-2-fluorophenoxy)thieno[3,2-b]pyridin-2-yl)pyridin-3-yl)methyl)-2-methylpiperazin-1-yl)-2-oxoethyl acetate] | < 50
CCNC(=O)N(CCOC)CCn1cnc(-c2cc3nccc(Oc4ccc(NC(=O)NC5CC5)cc4F)c3s2)c1 [Compound 256, N-(2-(4-(7-(4-(3-cyclopropylureido)-2-fluorophenoxy)thieno[3,2-b]-pyridin-2-yl)-1H-imidazol-1-yl)ethyl)-N-(1-ethyl)-N-[3-(2-methoxyethyl)]urea] | < 50
O=C(O)CCC1CCN(Cc2ccc(-c3cc4nccc(Oc5ccc(NC(=O)NC6CC6)cc5F)c4s3)nc2)CC1 [Compound 330, 3-(1-((6-(7-(4-(3-cyclopropylureido)-2-fluorophenoxy)thieno[3,2-b]pyridin-2-yl)pyridin-3-yl)methyl)piperidin-4-yl)propanoic acid] | < 50
CCOC(=O)C1CCCN(Cc2ccc(-c3cc4nccc(Oc5ccc(NC(=O)NC6CC6)cc5F)c4s3)nc2)C1 (centres unmarked) [Compound 475, ethyl 1-((6-(7-(4-(3-cyclopropylureido)-2-fluorophenoxy)thieno[3,2-b]pyridin-2-yl)pyridino-yl)methyl)piperidine-3-carboxylate] | < 50
CN(CCO)C(=O)[C@@H]1CCCN1Cc1ccc(-c2cc3nccc(Oc4ccc(NC(=O)NC5CC5)cc4F)c3s2)nc1 [Compound 486, (S)-1-((6-(7-(4-(3-cyclopropylureido)-2-fluorophenoxy)thieno[3,2-b]pyridin-2-yl)pyridin-3-yl)methyl)-N-(2-hydroxyethyl)-N-methylpyrrolidine-2-carboxamide] | < 50
O=C(Nc1ccc(Oc2ccnc3cc(-c4ccc(C(=O)N5CCCC5)cc4)sc23)c(F)c1)Nc1ccc(F)cc1F [Compound 127, 1-(2,4-difluorophenyl)-3-(3-fluoro-4-(2-(4-(pyrrolidine-1-carbonyl)phenyl)thieno[3,2-b]pyridin-7-yloxy)phenyl)urea] | < 50
O=C(Nc1ccc(Oc2ccnc3cc(-c4cnn(CCN5CCOCC5)c4)sc23)c(F)c1)NC1CC1 [Compound 155, 1-cyclopropyl-3-(3-fluoro-4-(2-(1-(2-morpholinoethyl)-1H-pyrazol-4-yl)thieno[3,2-b]pyridin-7-yloxy)phenyl)urea] | < 50
O=C(Nc1ccc(Oc2ccnc3cc(-c4ccc(CN5C[C@@H]6C[C@H]5CN6)cn4)sc23)c(F)c1)NC1CC1 [Compound 73] | < 50
COCCN(Cc1cnc(-c2cc3nccc(Oc4ccc(NC(=O)Nc5ccc(F)cc5F)cc4F)c3s2)n1C)C(C)=O [Compound 117, N-((2-(7-(4-(3-(2,4-difluorophenyl)ureido)-2-fluorophenoxy)thieno[3,2-b]pyridin-2-yl)-1-methyl-1H-imidazol-5-yl)methyl)-N-(2-methoxyethyl)acetamide] | < 50
O=C(O)CCCCN1CCN(Cc2ccc(-c3cc4nccc(Oc5ccc(NC(=O)NC6CC6)cc5F)c4s3)nc2)CC1 [Compound 518, 5-(4-((6-(7-(4-(3-cyclopropylureido)-2-fluorophenoxy)thieno[3,2-b]pyridin-2-yl)pyridin-3-yl)methyl)piperazin-1-yl)pentanoic acid] | < 50
O=C(Nc1ccc(Oc2ccnc3cc(-c4ccc(CN5CCN(CCF)CC5)cn4)sc23)c(F)c1)NC1CC1 [Compound 420, 1-Cyclopropyl-3-(3-fluoro-4-(2-(5-((4-(2-fluoroethyl)piperazin-1-yl)methyl)pyridin-2-yl)thieno[3,2-b]pyridin-7-yloxy)phenyl)urea] | < 50
O=C(CCc1cccnc1)NC1CCN(Cc2ccc(-c3cc4nccc(Oc5ccc(NC(=O)NC6CC6)cc5F)c4s3)nc2)CC1 [Compound 348] | < 50
CN(C)CC(=O)N1CCN(Cc2ccc(-c3cc4nccc(Oc5ccc(NC(=O)NC6CC6)cc5F)c4s3)nc2)CC1 [Compound 538] | < 50
COCCOCCOCCNC(=O)N1CCN(Cc2ccc(-c3cc4nccc(Oc5ccc(NC(=O)NC6CC6)cc5F)c4s3)nc2)CC1 [Compound 596, 4-((6-(7-(4-(3-Cyclopropylureido)-2-fluorophenoxy)thieno[3,2-b]pyridin-2-yl)pyridin-3-yl)methyl)-N-(2-(2-(2-methoxyethoxy)ethoxy)ethyl)piperazine-1-carboxamide] | < 50
O=C1CN(Cc2ccc(-c3cc4nccc(Oc5ccc(NC(=O)NC6CC6)cc5F)c4s3)nc2)CCN1 [Compound 67, l-cyclopropyl-3-(3-fluoro-4-(2-(5-((3-oxopiperazin-1-yl)methyl)pyridin-2-yl)thieno[3,2-b]-pyridin-7-yloxy)phenyl)urea] | < 50
CN(C)C/C=C/C(=O)N1CCN(Cc2ccc(-c3cc4nccc(Oc5ccc(NC(=O)NC6CC6)cc5F)c4s3)nc2)CC1 [Compound 547, (E)-1-cyclopropyl-3-(4-(2-(5-((4-(4-(dimethylamino)but-2-enoyl)piperazin-1-yl)methyl)pyridin-2-yl)thieno[3,2-b]pyridin-7-yloxy)-3-fluorophenyl)urea] | < 50
